Experimental data taken from patent US9932314B2, “Pyrazole compounds and their use as T-type calcium channel blockers” (IDORSIA PHARMACEUTICALS LTD, priority 2015, dated 2018).

Molecular target: T1, voltage-dependent T-type calcium channel subunit alpha-1G (Cav3.2) (Homo sapiens, UniProt O95180)
T1 construct: expressed in transfected cells; host or cells: HEK293
Experiment: FLIPR calcium flux assay, HEK293 cells recombinantly expressing Cav3.2
Assay type: cell-based
Conditions: Cav3.2-channel, Fluo-4-AM, 3 min incubation, stimulation with 10 mM CaCl2
In short: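 HEK293 cells stably expressing human Cav3.2 were loaded with Fluo-4-AM. Compounds diluted in TEAC buffer (pH 7.2) were preincubated for 3 min, then Ca2+ entry was triggered by 10 mM final CaCl2. Inhibition curves were fitted sigmoidally to the area under the fluorescence trace.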

T1 sequence (O95180 whole entry): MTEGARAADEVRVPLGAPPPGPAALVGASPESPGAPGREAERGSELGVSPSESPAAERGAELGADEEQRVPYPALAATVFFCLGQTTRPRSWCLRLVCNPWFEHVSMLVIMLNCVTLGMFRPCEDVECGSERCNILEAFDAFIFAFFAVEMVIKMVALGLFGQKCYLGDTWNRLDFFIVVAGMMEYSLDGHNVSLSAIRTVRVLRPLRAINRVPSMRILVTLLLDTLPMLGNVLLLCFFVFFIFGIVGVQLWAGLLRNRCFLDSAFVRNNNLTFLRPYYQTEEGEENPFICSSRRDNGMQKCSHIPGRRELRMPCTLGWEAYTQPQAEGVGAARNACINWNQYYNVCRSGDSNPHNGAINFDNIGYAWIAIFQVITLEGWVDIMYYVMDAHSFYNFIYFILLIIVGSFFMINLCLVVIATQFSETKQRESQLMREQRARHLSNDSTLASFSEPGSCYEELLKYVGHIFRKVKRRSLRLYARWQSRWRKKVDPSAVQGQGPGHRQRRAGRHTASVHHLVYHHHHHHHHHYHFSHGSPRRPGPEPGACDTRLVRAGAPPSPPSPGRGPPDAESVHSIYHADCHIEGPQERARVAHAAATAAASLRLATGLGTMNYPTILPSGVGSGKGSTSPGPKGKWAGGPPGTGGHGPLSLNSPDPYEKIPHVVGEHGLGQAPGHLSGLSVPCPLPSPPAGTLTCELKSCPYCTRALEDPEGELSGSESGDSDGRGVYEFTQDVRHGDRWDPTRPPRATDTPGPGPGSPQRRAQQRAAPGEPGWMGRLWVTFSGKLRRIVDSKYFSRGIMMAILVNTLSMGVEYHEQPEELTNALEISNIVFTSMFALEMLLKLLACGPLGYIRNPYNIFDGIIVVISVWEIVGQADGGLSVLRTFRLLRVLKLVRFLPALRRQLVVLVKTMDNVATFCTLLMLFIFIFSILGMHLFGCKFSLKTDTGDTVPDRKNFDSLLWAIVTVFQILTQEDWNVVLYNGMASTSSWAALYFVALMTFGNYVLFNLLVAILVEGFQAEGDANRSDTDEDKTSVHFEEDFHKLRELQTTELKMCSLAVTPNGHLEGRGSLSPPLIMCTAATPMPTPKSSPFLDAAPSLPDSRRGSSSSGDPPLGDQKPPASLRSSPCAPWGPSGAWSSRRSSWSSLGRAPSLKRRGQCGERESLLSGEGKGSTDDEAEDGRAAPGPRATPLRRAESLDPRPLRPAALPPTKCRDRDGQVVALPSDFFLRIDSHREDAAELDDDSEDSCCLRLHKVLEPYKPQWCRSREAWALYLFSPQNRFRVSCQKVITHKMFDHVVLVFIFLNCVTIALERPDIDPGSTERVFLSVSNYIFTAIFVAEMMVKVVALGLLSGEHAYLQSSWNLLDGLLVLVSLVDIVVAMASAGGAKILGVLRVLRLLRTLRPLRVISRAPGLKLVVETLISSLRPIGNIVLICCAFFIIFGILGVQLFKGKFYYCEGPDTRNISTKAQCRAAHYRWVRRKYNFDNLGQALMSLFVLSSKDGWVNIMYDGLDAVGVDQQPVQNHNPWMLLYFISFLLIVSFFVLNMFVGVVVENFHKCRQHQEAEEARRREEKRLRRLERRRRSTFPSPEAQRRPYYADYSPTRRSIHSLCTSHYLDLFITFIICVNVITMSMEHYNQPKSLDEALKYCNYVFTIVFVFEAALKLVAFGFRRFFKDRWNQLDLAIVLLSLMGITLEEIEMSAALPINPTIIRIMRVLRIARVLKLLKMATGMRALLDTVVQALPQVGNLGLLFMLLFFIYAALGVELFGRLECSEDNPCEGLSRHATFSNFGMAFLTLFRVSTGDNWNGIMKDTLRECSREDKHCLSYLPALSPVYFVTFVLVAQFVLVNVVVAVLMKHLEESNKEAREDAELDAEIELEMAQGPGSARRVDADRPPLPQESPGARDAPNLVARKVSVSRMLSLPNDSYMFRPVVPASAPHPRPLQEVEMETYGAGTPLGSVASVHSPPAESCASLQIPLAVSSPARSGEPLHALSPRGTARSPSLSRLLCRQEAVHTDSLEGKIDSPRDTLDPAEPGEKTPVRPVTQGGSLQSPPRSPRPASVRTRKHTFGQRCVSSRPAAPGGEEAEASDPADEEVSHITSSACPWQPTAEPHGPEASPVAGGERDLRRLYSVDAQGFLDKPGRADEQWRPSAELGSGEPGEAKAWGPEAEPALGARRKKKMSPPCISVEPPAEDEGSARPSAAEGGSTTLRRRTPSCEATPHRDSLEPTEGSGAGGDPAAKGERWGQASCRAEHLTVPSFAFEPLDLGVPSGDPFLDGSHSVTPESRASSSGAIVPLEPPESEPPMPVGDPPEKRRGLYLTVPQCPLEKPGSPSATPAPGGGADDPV

First: CN(C)c1ccc(CC(=O)Nc2ccn(Cc3ccc(Cl)c(F)c3)n2)cc1 [Example 26, N-[1-(4-Chloro-3-fluoro-benzyl)-1H-pyrazol-3-yl]-2-(4-dimethylamino-phenyl)-acetamide]
Second: CN(C)c1ccc(CC(=O)Nc2ccn(Cc3ccc(Cl)c(C(F)(F)F)c3)n2)cc1 [Example 27, N-[1-(4-Chloro-3-trifluoromethyl-benzyl)-1H-pyrazol-3-yl]-2-(4-dimethylamino-phenyl)-acetamide]
The IC50 of the first is 11-fold lower: 5.4 nM for the first, 61 nM for the second. The first is the more potent here.

First: CC1(C)Cc2ccc(CC(=O)Nc3ccn(Cc4ccc(C#N)cn4)n3)cc2O1 [Example 380, N-[1-(5-Cyano-pyridin-2-ylmethyl)-1H-pyrazol-3-yl]-2-(2,2-dimethyl-2,3-dihydro-benzofuran-6-yl)-acetamide]
Second: N#Cc1ccc(Cn2ccc(NC(=O)Cc3ccc(C4(O)CC4)cc3)n2)nc1 [Example 356, N-[1-(5-Cyano-pyridin-2-ylmethyl)-1H-pyrazol-3-yl]-2-[4-(1-hydroxy-cyclopropyl)-phenyl]-acetamide]
The IC50 of the first is 1.5-fold lower: 214 nM for the first, 327 nM for the second. The first is the more potent here.

First: N#Cc1ccc(Cn2ccc(NC(=O)Cc3ccc(C(F)(F)F)cc3)n2)nc1 [Example 338, N-[1-(5-Cyano-pyridin-2-ylmethyl)-1H-pyrazol-3-yl]-2-(4-trifluoromethyl-phenyl)-acetamide]
Second: N#Cc1ccc(Cn2ccc(NC(=O)Cc3ccc(OCC(F)(F)F)c(F)c3)n2)nc1 [Example 382, N-[1-(5-Cyano-pyridin-2-ylmethyl)-1H-pyrazol-3-yl]-2-[3-fluoro-4-(2,2,2-trifluoro-ethoxy)-phenyl]-acetamide]
The IC50 of the first is 1.9-fold lower: 61 nM for the first, 114 nM for the second.

First: Cc1cc(CC(=O)Nc2ccn(Cc3cc(C#N)c(F)cn3)n2)ccc1OCC(F)(F)F [Example 399, N-[1-(4-Cyano-5-fluoro-pyridin-2-ylmethyl)-1H-pyrazol-3-yl]-2-[3-methyl-4-(2,2,2-trifluoro-ethoxy)-phenyl]-acetamide]
Second: Cc1cc(CC(=O)Nc2ccn(Cc3ccc(F)c(C#N)n3)n2)cc(C)c1OCC(F)(F)F [Example 415, N-[1-(6-Cyano-5-fluoro-pyridin-2-ylmethyl)-1H-pyrazol-3-yl]-2-[3,5-dimethyl-4-(2,2,2-trifluoro-ethoxy)-phenyl]-acetamide]
The IC50 of the first is 12-fold higher: 60 nM for the first, 4.9 nM for the second. The second is the more potent here.

Compared with `CC1(COc2ccc(CC(=O)Nc3ccn(Cc4ccc(C#N)cc4)n3)cc2)COC1` [Example 285, N-[1-(4-Cyano-benzyl)-1H-pyrazol-3-yl]-2-[4-(3-methyl-oxetan-3-ylmethoxy)-phenyl]-acetamide], `N#Cc1ccc(Cn2ccc(NC(=O)Cc3ccc(OC4CC(F)(F)C4)cc3)n2)cc1` [Example 273, N-[1-(4-Cyano-benzyl)-1H-pyrazol-3-yl]-2-[4-(3,3-difluoro-cyclobutoxy)-phenyl]-acetamide] is 5.9-fold lower in IC50: 208 nM for the first, 35 nM for the second. The second is the more potent here.

Going from `Cc1cncnc1-c1ccc(CC(=O)Nc2ccn(Cc3ccc(F)cc3)n2)cc1` [Example 92, N-[1-(4-Fluoro-benzyl)-1H-pyrazol-3-yl]-2-[4-(5-methyl-pyrimidin-4-yl)-phenyl]-acetamide] to `CC(C)Cc1ccc(CC(=O)Nc2ccn(Cc3ccc(F)cc3)n2)cc1` [Example 147, N-[1-(4-Fluoro-benzyl)-1H-pyrazol-3-yl]-2-(4-isobutyl-phenyl)-acetamide], the IC50 falls from 48 nM to 13 nM (3.7-fold).

Going from `N#Cc1ccc(Cn2ccc(NC(=O)Cc3ccc(N4CC(F)(F)C4)nc3)n2)cc1` [Example 144, N-[1-(4-Cyano-benzyl)-1H-pyrazol-3-yl]-2-[6-(3,3-difluoro-azetidin-1-yl)-pyridin-3-yl]-acetamide] to `N#Cc1ccc(Cn2ccc(NC(=O)Cc3ccc(N4CC(F)C4)nc3)n2)cc1` [Example 161, N-[1-(4-Cyano-benzyl)-1H-pyrazol-3-yl]-2-[6-(3-fluoro-azetidin-1-yl)-pyridin-3-yl]-acetamide], the IC50 rises from 160 nM to 258 nM (1.6-fold). The first is the more potent here.

`Cc1cc(Cn2ccc(NC(=O)Cc3ccc(N(C)C)nc3)n2)ccc1F` [Example 39, 2-(6-Dimethylamino-pyridin-3-yl)-N-[1-(4-fluoro-3-methyl-benzyl)-1H-pyrazol-3-yl]-acetamide] and `Cc1ccc(Cn2ccc(NC(=O)Cc3ccc(N(C)C)nc3)n2)cc1F` [Example 38, 2-(6-Dimethylamino-pyridin-3-yl)-N-[1-(3-fluoro-4-methyl-benzyl)-1H-pyrazol-3-yl]-acetamide] are within 1.5-fold of each other in IC50: 49 nM for the first, 39 nM for the second.

Compared with `CC(C)c1ccc(CC(=O)Nc2ccn(Cc3ccc(C#N)c(F)n3)n2)cc1` [Example 148, N-[1-(5-Cyano-6-fluoro-pyridin-2-ylmethyl)-1H-pyrazol-3-yl]-2-(4-isopropyl-phenyl)-acetamide], `CC(C)c1ccc(CC(=O)Nc2ccn(Cc3ccc(F)cn3)n2)cc1` [Example 106, N-[1-(5-Fluoro-pyridin-2-ylmethyl)-1H-pyrazol-3-yl]-2-(4-isopropyl-phenyl)-acetamide] is 2-fold higher in IC50: 7.6 nM for the first, 15 nM for the second. The first is the more potent here.

Compared with `CO[C@@H](C)c1ccc(CC(=O)Nc2ccn(Cc3ccc(F)c(F)c3)n2)cc1` (single isomer, unassigned) [Example 233], `COC1(c2ccc(CC(=O)Nc3ccn(Cc4ccc(F)c(F)c4)n3)cc2)COC1` [Example 231, N-[1-(3,4-Difluoro-benzyl)-1H-pyrazol-3-yl]-2-[4-(3-methoxy-oxetan-3-yl)-phenyl]-acetamide] is 2.6-fold higher in IC50: 8.1 nM for the first, 21 nM for the second. The first is the more potent here.

Going from `N#Cc1ccc(Cn2ccc(NC(=O)Cc3ccc(C4CC(F)(F)C4)cc3)n2)cc1` [Example 300, N-[1-(4-Cyano-benzyl)-1H-pyrazol-3-yl]-2-[4-(3,3-difluoro-cyclobutyl)-phenyl]-acetamide] to `CC(C)c1ccc(CC(=O)Nc2ccn(Cc3ccc(C4CC4)cc3)n2)cc1` [Example 192, N-[1-(4-Cyclopropyl-benzyl)-1H-pyrazol-3-yl]-2-(4-isopropyl-phenyl)-acetamide], the IC50 rises from 7.5 nM to 133 nM (18-fold). The first is the more potent here.

Compared with `N#Cc1ccc(Cn2ccc(NC(=O)Cc3ccc(C4(F)COC4)cc3)n2)nc1` [Example 246, N-[1-(5-Cyano-pyridin-2-ylmethyl)-1H-pyrazol-3-yl]-2-[4-(3-fluoro-oxetan-3-yl)-phenyl]-acetamide], `N#Cc1ccc(Cn2ccc(NC(=O)Cc3ccc(OCC4CC(F)(F)C4)cc3)n2)nc1` [Example 304, N-[1-(5-Cyano-pyridin-2-ylmethyl)-1H-pyrazol-3yl]-2-[4-(3,3-difluoro-cyclobutylmethoxy)-phenyl]-acetamide] is 6-fold lower in IC50: 705 nM for the first, 118 nM for the second. The second is the more potent here.

Compared with `CC(C)(C)c1ccc(CC(=O)Nc2ccn(Cc3ccc(F)c(C#N)c3)n2)cc1` [Example 283, 2-(4-tert-Butyl-phenyl)-N-[1-(3-cyano-4-fluoro-benzyl)-1H-pyrazol-3-yl]-acetamide], `Cn1ncc2cc(CC(=O)Nc3ccn(Cc4ccc(F)c(C#N)c4)n3)ccc21` [Example 268, N-[1-(3-Cyano-4-fluoro-benzyl)-1H-pyrazol-3-yl]-2-(1-methyl-1H-indazol-5-yl)-acetamide] is 3.7-fold higher in IC50: 9.5 nM for the first, 35 nM for the second.

Compared with `O=C(Cc1ccc2[nH]c(=O)oc2c1)Nc1ccn(Cc2ccc(F)c(F)c2)n1` [Example 218, N-[1-(3,4-Difluoro-benzyl)-1H-pyrazol-3-yl]-2-(2-oxo-2,3-dihydro-benzooxazol-6-yl)-acetamide], `Cc1nc2ccc(CC(=O)Nc3ccn(Cc4ccc(F)cc4)n3)cc2[nH]1` [Example 137, N-[1-(4-Fluoro-benzyl)-1H-pyrazol-3-yl]-2-(2-methyl-3H-benzoimidazol-5-yl)-acetamide] is 4-fold higher in IC50: 79 nM for the first, 313 nM for the second.

First: COc1ccc(Cn2ccc(NC(=O)Cc3ccc(N4CCC4)nc3)n2)cc1 [Example 101, 2-(6-Azetidin-1-yl-pyridin-3-yl)-N-[1-(4-methoxy-benzyl)-1H-pyrazol-3-yl]-acetamide]
Second: N#Cc1ccc(Cn2ccc(NC(=O)Cc3ccc(N4CCCC4)nc3)n2)nc1 [Example 276, N-[1-(5-Cyano-pyridin-2-ylmethyl)-1H-pyrazol-3-yl]-2-(6-pyrrolidin-1-yl-pyridin-3-yl)-acetamide]
The IC50 of the first is 4.9-fold higher: 925 nM for the first, 188 nM for the second.

`O=C(Cc1ccc(OCC2CC(F)(F)C2)cc1)Nc1ccn(Cc2ccc(F)c(F)c2)n1` [Example 244, N-[1-(3,4-Difluoro-benzyl)-1H-pyrazol-3-yl]-2-[4-(3,3-difluoro-cyclobutylmethoxy)-phenyl]-acetamide] and `N#Cc1cc(Cn2ccc(NC(=O)Cc3ccc(OCC4CC(F)(F)C4)cc3)n2)ccc1F` [Example 313, N-[1-(3-Cyano-4-fluoro-benzyl)-1H-pyrazol-3-yl]-2-[4-(3,3-difluoro-cyclobutylmethoxy)-phenyl]-acetamide] are within 1.5-fold of each other in IC50: 33 nM for the first, 45 nM for the second.

Going from `N#Cc1cc(Cn2ccc(NC(=O)Cc3ccc(F)cc3OCC(F)(F)F)n2)ccc1F` [Example 332, N-[1-(3-Cyano-4-fluoro-benzyl)-1H-pyrazol-3-yl]-2-[4-fluoro-2-(2,2,2-trifluoro-ethoxy)-phenyl]-acetamide] to `COc1ccc(Cn2ccc(NC(=O)Cc3ccc(N(C)C)cc3)n2)cc1C(F)(F)F` [Example 29, 2-(4-Dimethylamino-phenyl)-N-[1-(4-methoxy-3-trifluoromethyl-benzyl)-1H-pyrazol-3-yl]-acetamide], the IC50 falls from 600 nM to 25 nM (24-fold).

First: Cn1cc(C2CCC2)c2cc(CC(=O)Nc3ccn(Cc4ccc(C#N)cn4)n3)ccc21 [Example 323, N-[1-(5-Cyano-pyridin-2-ylmethyl)-1H-pyrazol-3-yl]-2-(3-cyclobutyl-1-methyl-1H-indol-5-yl)-acetamide]
Second: CN(CC(F)F)c1ccc(CC(=O)Nc2ccn(Cc3ccc(C#N)cn3)n2)cn1 [Example 151, N-[1-(5-Cyano-pyridin-2-ylmethyl)-1H-pyrazol-3-yl]-2-{6-[(2,2-difluoro-ethyl)-methyl-amino]-pyridin-3-yl}-acetamide]
The IC50 of the first is 18-fold lower: 36 nM for the first, 649 nM for the second.

Going from `Cc1ccc(Cn2ccc(NC(=O)Cc3ccc(C4(C)CC4)cc3)n2)nc1C#N` [Example 377, N-[1-(6-Cyano-5-methyl-pyridin-2-ylmethyl)-1H-pyrazol-3-yl]-2-[4-(1-methyl-cyclopropyl)-phenyl]-acetamide] to `CN(CC1CC1)c1ccc(CC(=O)Nc2ccn(Cc3ccc(C#N)cc3)n2)cn1` [Example 186, N-[1-(4-Cyano-benzyl)-1H-pyrazol-3-yl]-2-[6-(cyclopropylmethyl-methyl-amino)-pyridin-3-yl]-acetamide], the IC50 rises from 25 nM to 41 nM (1.6-fold).
